From PubChem BioAssay AID330 (DTP/NCI, 2004)
Where “and” joins values, the source holds several entries; their conditions need not be identical. Equal entries are not always repeated. Toxic doses and inconclusive results are not listed. Rule for the calls: active = survival T/C of 150% or more; inactive = T/C below 125% in these data.

Test system: P388 leukemia ip, CD2F1 mice, survival T/C
Experiment: NCI In Vivo Anticancer Drug Screen. Data for tumor model P388 Leukemia (intraperitoneal) in CD2F1 (CDF1) mice
Conditions: endpoint: median survival time, higher = longer survival
Procedure, shortened: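 Mice carrying the transplanted tumor received test compound or vehicle. Survival was recorded in each group, and the value is the treated-group measurement divided by that of the vehicle-treated control group.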

[1] = dose: 25.0 mg/kg/injection, schedule: Q01DX005 (ip), vehicle: Klucel (hydroxypropylcellulose) (HPC)
[2] = dose: 50.0 mg/kg/injection, schedule: Q01DX005 (ip), vehicle: Klucel (hydroxypropylcellulose) (HPC)
[3] = dose: 100.0 mg/kg/injection, schedule: Q01DX005 (ip), vehicle: Klucel (hydroxypropylcellulose) (HPC)
[4] = dose: 200.0 mg/kg/injection, schedule: Q01DX005 (ip), vehicle: Klucel (hydroxypropylcellulose) (HPC)
[5] = dose: 60.0 mg/kg/injection, schedule: Q01DX005 (ip), vehicle: saline with Tween-80
[6] = dose: 120.0 mg/kg/injection, schedule: Q01DX005 (ip), vehicle: saline with Tween-80
[7] = dose: 240.0 mg/kg/injection, schedule: Q01DX005 (ip), vehicle: saline with Tween-80
[8] = dose: 100.0 mg/kg/injection, schedule: Q04DX003 (ip), vehicle: saline with Tween-80
[9] = dose: 12.5 mg/kg/injection, schedule: Q01DX009 (ip), vehicle: saline with Tween-80
[10] = dose: 100.0 mg/kg/injection, schedule: Q01DX001 (ip), vehicle: Klucel (hydroxypropylcellulose) (HPC)
[11] = dose: 200.0 mg/kg/injection, schedule: Q01DX001 (ip), vehicle: Klucel (hydroxypropylcellulose) (HPC)
[12] = dose: 400.0 mg/kg/injection, schedule: Q01DX001 (ip), vehicle: Klucel (hydroxypropylcellulose) (HPC)
[13] = dose: 12.5 mg/kg/injection, schedule: Q01DX009 (ip), vehicle: saline
[14] = dose: 25.0 mg/kg/injection, schedule: Q01DX009 (ip), vehicle: saline
[15] = dose: 50.0 mg/kg/injection, schedule: Q01DX005 (ip), vehicle: saline with Tween-80
[16] = dose: 100.0 mg/kg/injection, schedule: Q01DX005 (ip), vehicle: saline with Tween-80
[17] = dose: 200.0 mg/kg/injection, schedule: Q01DX005 (ip), vehicle: saline with Tween-80

Measured: T/C

COc1cccc2c1C(=O)c1c(O)c3c(c(O)c1C2=O)C[C@@](O)(C(C)=O)C[C@@H]3OC1CC(NCc2ccccc2)C(O)C(C)O1 (stereo partly specified)
inactive: dose: 0.78 mg/kg/injection, schedule: Q01DX009 (ip), vehicle: water 114 % of control | dose: 2.35 mg/kg/injection, schedule: Q04DX003 (ip), vehicle: water 106 % of control | dose: 12.5 mg/kg/injection, schedule: Q01DX009 (ip), vehicle: water 94 % of control | dose: 18.0 mg/kg/injection, schedule: Q04DX003 (ip), vehicle: water 115 % of control | dose: 37.5 mg/kg/injection, schedule: Q04DX003 (ip), vehicle: water 116 % of control | dose: 75.0 mg/kg/injection, schedule: Q04DX003 (ip), vehicle: water 95 % of control
active: dose: 1.56 mg/kg/injection, schedule: Q01DX009 (ip), vehicle: water 161 % of control and 162 % of control | dose: 3.13 mg/kg/injection, schedule: Q01DX009 (ip), vehicle: water 166 % of control and 185 % of control | dose: 6.48 mg/kg/injection, schedule: Q04DX003 (ip), vehicle: water 166 % of control | dose: 9.4 mg/kg/injection, schedule: Q04DX003 (ip), vehicle: water 153 % of control | dose: 10.8 mg/kg/injection, schedule: Q04DX003 (ip), vehicle: water 204 % of control | dose: 18.8 mg/kg/injection, schedule: Q04DX003 (ip), vehicle: water 169 % of control

COc1ccc(CCN2C(=O)CCC3=C2CCC3=O)cc1OC
inactive: [1] 100 % of control | [2] 98 % of control | [3] 100 % of control | [4] 106 % of control

CCCNc1nc2c(c(=O)n1-c1ccccc1)C=C(C(=O)OC)CCN2S(=O)(=O)c1ccc(C)cc1
inactive: [5] 108 % of control | [6] 101 % of control | [7] 105 % of control

CN1C(=O)N(C)C2(C=Cc3ccccc3O2)N(C)C1=O
inactive: dose: 50.0 mg/kg/injection, schedule: Q04DX003 (ip), vehicle: saline with Tween-80 92 % of control | [8] 98 % of control | dose: 200.0 mg/kg/injection, schedule: Q04DX003 (ip), vehicle: saline with Tween-80 92 % of control

COC(=O)C1(CC(=O)/C=C/c2ccccc2)NC(=S)NC(=O)C1C#N (stereo unspecified)
inactive: dose: 30.0 mg/kg/injection, schedule: Q01DX005 (ip), vehicle: Klucel (hydroxypropylcellulose) (HPC) 102 % of control | dose: 60.0 mg/kg/injection, schedule: Q01DX005 (ip), vehicle: Klucel (hydroxypropylcellulose) (HPC) 91 % of control and 92 % of control | dose: 240.0 mg/kg/injection, schedule: Q01DX005 (ip), vehicle: Klucel (hydroxypropylcellulose) (HPC) 92 % of control

CCCn1c(C)nc2c([N+](=O)[O-])cc(C(F)(F)F)cc21
inactive: [5] 98 % of control | [6] 97 % of control | [7] 99 % of control

c1cc2sc3ccc(OCCCN4CCCCC4)cc3c2cc1OCCCN1CCCCC1
inactive: [9] 104 % of control | dose: 25.0 mg/kg/injection, schedule: Q01DX009 (ip), vehicle: saline with Tween-80 115 % of control | dose: 50.0 mg/kg/injection, schedule: Q01DX009 (ip), vehicle: saline with Tween-80 91 % of control

Cc1ccc(S(=O)(=O)N/N=C/c2c(Cl)n(C)c3ccccc23)cc1
inactive: [10] 91 % of control | [11] 97 % of control | [12] 100 % of control

c1ccc2c(c1)Sc1ccccc1N2CCCN1CCCC1
inactive: [13] 105 % of control | [14] 104 % of control | dose: 25.0 mg/kg/injection, schedule: Q04DX002 (ip), vehicle: saline 111 % of control | dose: 50.0 mg/kg/injection, schedule: Q01DX009 (ip), vehicle: saline 112 % of control and 120 % of control | dose: 50.0 mg/kg/injection, schedule: Q04DX002 (ip), vehicle: saline 111 % of control | dose: 100.0 mg/kg/injection, schedule: Q04DX002 (ip), vehicle: saline 101 % of control

CC(Cc1ccccc1)NC(=O)c1ccncc1 (stereo unspecified)
inactive: [15] 103 % of control | [16] 102 % of control | [17] 100 % of control

CN=C(N)N/N=C(/C)c1cc2ccccc2c2ccccc12
inactive: dose: 25.0 mg/kg/injection, schedule: Q04DX002 (ip), vehicle: saline with Tween-80 95 % of control | dose: 50.0 mg/kg/injection, schedule: Q04DX002 (ip), vehicle: saline with Tween-80 101 % of control | dose: 100.0 mg/kg/injection, schedule: Q04DX002 (ip), vehicle: saline with Tween-80 102 % of control

CCc1ccc(C2=C(O)C(=O)C(c3ccc(CC)cc3)=C(O)C2=O)cc1
inactive: dose: 6.25 mg/kg/injection, schedule: Q01DX009 (ip), vehicle: saline with Tween-80 100 % of control | [9] 110 % of control
active: dose: 33.0 mg/kg/injection, schedule: Q01DX009 (ip), vehicle: saline with Tween-80 163 % of control

C(=N\Nc1nnc2c3ccccc3c3ccccc3c2n1)/c1ccc2c(c1)OCO2
inactive: dose: 50.0 mg/kg/injection, schedule: Q04DX002 (ip), vehicle: suspension in saline 91 % of control | dose: 100.0 mg/kg/injection, schedule: Q04DX002 (ip), vehicle: suspension in saline 88 % of control | dose: 200.0 mg/kg/injection, schedule: Q04DX002 (ip), vehicle: suspension in saline 91 % of control

[Cu].[NH-]C1CCCC2CCC[N-]C12.[NH-]C1CCCC2CCC[N-]C12 (stereo unspecified)
inactive: dose: 12.5 mg/kg/injection, schedule: Q04DX002 (ip), vehicle: saline with Tween-80 106 % of control

N#CC1c2ccccc2C=CN1C(=O)CCCl (stereo unspecified)
inactive: dose: 50.0 mg/kg/injection, schedule: Q01DX009 (ip), vehicle: Klucel (hydroxypropylcellulose) (HPC) 106 % of control | dose: 100.0 mg/kg/injection, schedule: Q01DX009 (ip), vehicle: Klucel (hydroxypropylcellulose) (HPC) 108 % of control | dose: 200.0 mg/kg/injection, schedule: Q01DX009 (ip), vehicle: Klucel (hydroxypropylcellulose) (HPC) 108 % of control

CC(=O)Nc1cccc(OCc2cccc(N3C(N)=NC(N)=NC3(C)C)c2)c1
inactive: dose: 1.56 mg/kg/injection, schedule: Q01DX009 (ip), vehicle: distilled water + Tween-80 99 % of control | dose: 3.12 mg/kg/injection, schedule: Q01DX009 (ip), vehicle: distilled water + Tween-80 99 % of control | dose: 6.25 mg/kg/injection, schedule: Q01DX009 (ip), vehicle: distilled water + Tween-80 105 % of control | dose: 6.25 mg/kg/injection, schedule: Q01DX009 (ip), vehicle: saline 105 % of control | dose: 12.5 mg/kg/injection, schedule: Q01DX009 (ip), vehicle: distilled water + Tween-80 105 % of control | [13] 101 % of control | [14] 117 % of control

Cc1ccc(S(=O)(=O)N/N=C/c2c(Cl)[nH]c3cc(C)c(O)cc23)cc1
inactive: dose: 25.0 mg/kg/injection, schedule: Q01DX001 (ip), vehicle: Klucel (hydroxypropylcellulose) (HPC) 100 % of control | dose: 50.0 mg/kg/injection, schedule: Q01DX001 (ip), vehicle: Klucel (hydroxypropylcellulose) (HPC) 105 % of control | [10] 103 % of control and 91 % of control | [11] 103 % of control | [12] 91 % of control

Cc1noc2c1NC(=O)OC(C)(C)C2
inactive: dose: 12.5 mg/kg/injection, schedule: Q01DX005 (ip), vehicle: Klucel (hydroxypropylcellulose) (HPC) 102 % of control | [1] 105 % of control | [2] 100 % of control | [3] 104 % of control | [4] 101 % of control

C[C@]12Cc3cnc(N)nc3C[C@@H]1CC[C@@H]1[C@@H]2CC[C@@]2(C)[C@H]1CC[C@]2(C)O
inactive: [15] 99 % of control | [16] 89 % of control | [17] 89 % of control

c1ccc(N2CCSCC2)cc1
active: dose: 66.0 mg/kg/injection, schedule: Q04DX003 (ip), vehicle: saline with Tween-80 150 % of control | [8] 204 % of control | dose: 150.0 mg/kg/injection, schedule: Q04DX003 (ip), vehicle: saline with Tween-80 190 % of control
inactive: dose: 50.0 mg/kg/injection, schedule: Q04DX003 (ip), vehicle: saline 104 % of control | dose: 200.0 mg/kg/injection, schedule: Q04DX003 (ip), vehicle: saline 109 % of control
